The source of these data is patent US20180030500A1, “ENRICHMENT AND SELECTIVE CULTURE OF MYCOBACTERIA” (priority 2015, published 2018).

Where two headings read alike, the source gives them in different places.

One experiment relates to Mycobacteria. The settings on record: 20 strains, 7 days.
Another experiment relates to Pseudomonas aeruginosa. The settings on record: 50 strains, 7 days.
Another experiment has as its system Gram-positive bacteria. To be noted: 10 strains, 7 days.
A further experiment relates to Enterobacteria. To be noted: 7 strains, 7 days.
Where [1] appears, read: selective agent 32 mg/l in medium L.
[2] abbreviates: selective agent 64 mg/l in medium L.
[3] abbreviates: selective agent 128 mg/l in medium L.
The mark [4] stands for this setting: selective agent 400 mg/l in medium L.
[5] abbreviates: selective agent 800 mg/l in medium L.
Setting [6] is: selective agent 1600 mg/l in medium L.
[7] abbreviates: selective agent 16 mg/l in medium L.
[8] abbreviates: selective agent 0.125 mg/l in medium L.
Where [9] appears, read: selective agent 0.25 mg/l in medium L.
Setting [10] is: selective agent 0.5 mg/l in medium L.
Where [11] appears, read: selective agent 2.5 mg/l in medium L.
[12] abbreviates: selective agent 5 mg/l in medium L.
Where [13] appears, read: selective agent 10 mg/l in medium L.
The mark [14] stands for this setting: selective agent 5.0 mg/l in medium L.

Consider colistin methanesulfonate, for which the “Number of strains having shown growth” value in the experiment with Mycobacteria (setting [1]) is given as 20; in the experiment on Mycobacteria (setting [2]), 20; with Mycobacteria (setting [3]) it was 20; in the experiment with Pseudomonas aeruginosa (setting [1]), 5; in the experiment on Pseudomonas aeruginosa (setting [2]) it was 5; in the experiment with Pseudomonas aeruginosa (setting [3]), 5. For the same compound, the “Number of strains having shown growth” value in the experiment with Gram-positive bacteria (setting [1]) worked out at 7; in the experiment on Gram-positive bacteria (setting [2]) it was 6; in the experiment on Gram-positive bacteria (setting [3]) it was 5; in the experiment with Enterobacteria (setting [1]) it was 3; in the experiment with Enterobacteria (setting [2]), 3; in the experiment on Enterobacteria (setting [3]) it was 3. The “Percentage of strains having shown growth” value (“Percentage” below) is listed as “(100%)” in the experiment with Mycobacteria (setting [1]); “(100%)” in the experiment on Mycobacteria (setting [2]); “(100%)” in the experiment on Mycobacteria (setting [3]); “(10%)” in the experiment on Pseudomonas aeruginosa (setting [1]); “(10%)” in the experiment with Pseudomonas aeruginosa (setting [2]); “(10%)” with Pseudomonas aeruginosa (setting [3]). For the same compound, the “Percentage” value with Gram-positive bacteria (setting [1]) is “(70%)”; in the experiment on Gram-positive bacteria (setting [2]) it was “(60%)”; in the experiment on Gram-positive bacteria (setting [3]), “(50%)”; in the experiment with Enterobacteria (setting [1]) it was “(43%)”; in the experiment with Enterobacteria (setting [2]), “(43%)”; with Enterobacteria (setting [3]), “(43%)”.

As for `C[C@@H]1O[C@@H]1P(=O)(O)O` [fosfomycin], the “Number of strains having shown growth” value with Mycobacteria (setting [4]) turned out to be 20; in the experiment with Mycobacteria (setting [5]), 20; with Mycobacteria (setting [6]), 20; in the experiment with Pseudomonas aeruginosa (setting [4]) it was 15; in the experiment with Pseudomonas aeruginosa (setting [5]), 8; in the experiment on Pseudomonas aeruginosa (setting [6]) it was 6. The “Number of strains having shown growth” value in the experiment with Gram-positive bacteria (setting [4]) is 0; in the experiment with Gram-positive bacteria (setting [5]) it was 0; in the experiment on Gram-positive bacteria (setting [6]), 0; with Enterobacteria (setting [4]), 3; with Enterobacteria (setting [5]), 2; in the experiment on Enterobacteria (setting [6]) it was 2. For the same compound, the “Percentage” value in the experiment with Mycobacteria (setting [4]) was “(100%)”; in the experiment on Mycobacteria (setting [5]), “(100%)”; in the experiment on Mycobacteria (setting [6]), “(100%)”; in the experiment with Pseudomonas aeruginosa (setting [4]), “(30%)”; with Pseudomonas aeruginosa (setting [5]), “(16%)”; in the experiment on Pseudomonas aeruginosa (setting [6]) it was “(12%)”. Also, the “Percentage” value with Enterobacteria (setting [4]) is on record as “(43%)”; in the experiment with Enterobacteria (setting [5]), “(29%)”; in the experiment with Enterobacteria (setting [6]), “(29%)”.

Consider `CCn1cc(C(=O)O)c(=O)c2ccc(C)nc21` [nalidixic acid], for which the “Number of strains having shown growth” value is reported as 20 in the experiment on Mycobacteria (setting [7]); 20 in the experiment with Mycobacteria (setting [1]); 20 with Mycobacteria (setting [2]); 50 in the experiment with Pseudomonas aeruginosa (setting [7]); 43 with Pseudomonas aeruginosa (setting [1]); 35 in the experiment on Pseudomonas aeruginosa (setting [2]). In addition, the “Number of strains having shown growth” value was determined as 9 in the experiment with Gram-positive bacteria (setting [7]); 8 with Gram-positive bacteria (setting [1]); 7 with Gram-positive bacteria (setting [2]); 4 with Enterobacteria (setting [7]); 0 in the experiment with Enterobacteria (setting [1]); 0 with Enterobacteria (setting [2]). Moreover, the “Percentage” value is reported as “(100%)” in the experiment with Mycobacteria (setting [7]); “(100%)” in the experiment on Mycobacteria (setting [1]); “(100%)” in the experiment on Mycobacteria (setting [2]); “(100%)” in the experiment with Pseudomonas aeruginosa (setting [7]); “(86%)” in the experiment with Pseudomonas aeruginosa (setting [1]); “(70%)” in the experiment on Pseudomonas aeruginosa (setting [2]). In addition, the “Percentage” value in the experiment on Gram-positive bacteria (setting [7]) is on record as “(90%)”; with Gram-positive bacteria (setting [1]), “(80%)”; in the experiment on Gram-positive bacteria (setting [2]) it was “(70%)”; in the experiment on Enterobacteria (setting [7]), “(57%)”.

For the compound `CN(C)c1ccc(C(=C2C=CC(=[N+](C)C)C=C2)c2ccccc2)cc1` [malachite green], the “Number of strains having shown growth” value in the experiment on Mycobacteria (setting [8]) turned out to be 16; in the experiment with Mycobacteria (setting [9]) it was 20; in the experiment with Mycobacteria (setting [10]) it was 20; in the experiment with Pseudomonas aeruginosa (setting [8]), 50; in the experiment with Pseudomonas aeruginosa (setting [9]), 50; in the experiment on Pseudomonas aeruginosa (setting [10]), 50. The “Number of strains having shown growth” value in the experiment on Gram-positive bacteria (setting [8]) was 10; in the experiment on Gram-positive bacteria (setting [9]), 10; in the experiment on Gram-positive bacteria (setting [10]), 9; in the experiment with Enterobacteria (setting [8]) it was 7; with Enterobacteria (setting [9]), 7; in the experiment on Enterobacteria (setting [10]) it was 7. The “Percentage” value in the experiment on Mycobacteria (setting [8]) is listed as “(80%)”; in the experiment on Mycobacteria (setting [9]), “(100%)”; with Mycobacteria (setting [10]), “(100%)”; with Pseudomonas aeruginosa (setting [8]) it was “(100%)”; with Pseudomonas aeruginosa (setting [9]), “(100%)”; in the experiment on Pseudomonas aeruginosa (setting [10]), “(100%)”. Moreover, the “Percentage” value in the experiment with Gram-positive bacteria (setting [8]) is reported as “(100%)”; with Gram-positive bacteria (setting [9]) it was “(100%)”; in the experiment on Gram-positive bacteria (setting [10]) it was “(90%)”; in the experiment on Enterobacteria (setting [8]), “(100%)”; with Enterobacteria (setting [9]), “(100%)”; in the experiment on Enterobacteria (setting [10]) it was “(100%)”.

On to `CN[C@H](CC(C)C)C(=O)N[C@H]1C(=O)N[C@@H](CC(N)=O)C(=O)N[C@H]2C(=O)N[C@H]3C(=O)N[C@H](C(=O)N[C@H](C(=O)O)c4cc(O)cc(O)c4-c4cc3ccc4O)[C@H](O)c3ccc(c(Cl)c3)Oc3cc2cc(c3O[C@@H]2O[C@H](CO)[C@@H](O)[C@H](O)[C@H]2O[C@H]2C[C@](C)(N)[C@H](O)[C@H](C)O2)Oc2ccc(cc2Cl)[C@H]1O` [vancomycin], for which the “Number of strains having shown growth” value is listed as 19 in the experiment on Mycobacteria (setting [11]); 19 in the experiment on Mycobacteria (setting [12]); 19 in the experiment on Mycobacteria (setting [13]); 50 in the experiment on Pseudomonas aeruginosa (setting [11]); 50 with Pseudomonas aeruginosa (setting [14]); 50 in the experiment with Pseudomonas aeruginosa (setting [13]). Also, the “Number of strains having shown growth” value in the experiment on Gram-positive bacteria (setting [11]) amounted to 0; in the experiment with Gram-positive bacteria (setting [14]), 0; with Gram-positive bacteria (setting [13]), 0; in the experiment on Enterobacteria (setting [11]), 7; in the experiment on Enterobacteria (setting [14]), 7; in the experiment with Enterobacteria (setting [13]), 7. For the same compound, the “Percentage” value in the experiment with Mycobacteria (setting [11]) is “(95%)”; in the experiment on Mycobacteria (setting [12]), “(95%)”; with Mycobacteria (setting [13]), “(95%)”; in the experiment on Pseudomonas aeruginosa (setting [11]), “(100%)”; in the experiment on Pseudomonas aeruginosa (setting [14]), “(100%)”; with Pseudomonas aeruginosa (setting [13]) it was “(100%)”. The “Percentage” value in the experiment on Enterobacteria (setting [11]), with Enterobacteria (setting [14]) and with Enterobacteria (setting [13]) was “(100%)” throughout.
